Measured values published in patent US20120101093A1, “SUBSTITUTED IMIDAZO[1,2-A]PYRIDINE DERIVATIVES, PHARMACEUTICAL COMPOSITIONS, AND METHODS OF USE AS BETA-SECRETASE INHIBITORS” (HIGH POINT PHARMACEUTICALS, LLC, priority 2009, published 2012).

Key:
BACE-1 enzyme = biological target: T1, BACE-1 enzyme (Homo sapiens, UniProt P56817); assay: BACE Fluorescence Resonance Energy Transfer (FRET) Assay; assay type: biochemical; conditions: pH 4-4.5, 30 min pre-incubation, about 1.5 hours reaction
T1 construct: purchased R & D Systems 931AS
Method in brief: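 BACE-1 enzyme pre-incubated 30 min with compound in 7.5% DMSO in 50 mM sodium acetate pH 4-4.5, 0.01% CHAPS, 0.0125% Triton X-100, 0.006% EDTA. Rhodamine/quencher peptide substrate added; ~1.5 h at room temperature, fluorescence read at 540/585 nm. IC50 or percent inhibition at one concentration.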

[1] = system: Aβ1-40 secreted from HEK293 cells stably expressing wildtype human APP695 protein (HEK-APPwt cells); assay: Aβ Cell Based Assay (Aβ1-40 secretion, ELISA); conditions: Homo sapiens, HEK293, 6 h, 6 hours incubation, reduction of Aβ1-40 secretion
Method: Aβ Cell Based Assay Procedure
In the following assay, the proteolytic activity of BACE in cells exposed to varying concentrations of a compound of interest is measured by observing the amount of Aβ1-40 secreted from HEK293 cells (Human Embryonic Kidney epithelial cell line) stably expressing wildtype human APP695 protein (HEK-APPwt cells).
HEK-APPwt cells were grown in high glucose DMEM (Dulbecco's Modified Eagles Medium SIGMA Cat.# D5796) supplemented with 25 mM HEPES (4-(2-hydroxyethyl)-1-piperazineethanesulfonic acid) (pH 7.4) (Invitrogen Cat.# 15630-114), 0.1 mM NEAA (Non-essential Amino Acids) (BioWhittaker Cat. #13-114E), 10% fetal bovine serum (SIGMA Cat. #F4135) and 250 μg/mL hygromycin (Invitrogen Cat. #10687-010) in T-225 flasks at 37° C. with 5% CO2 and humidity control.
Test compounds were initially prepared in DMSO and diluted with DMEM media containing 2% FBS (Fetal bovine serum). Ten standard compound solutions were prepared having a range of concentrations. The standard compound solutions were used to determine the EC50 of the test compound. The range of concentrations chosen may depend on the compound's predicted potency.
To prepare the cells for the assay, a flask containing HEK-APPwt cells were trypsinized briefly (1 mL trypsin), and once the cells detached, 4 mL of 10% FBS-DMEM was added to the flask. The detached cells were centrifuged at 900 rpm for 5 min to form a pellet.
The HEK-APPwt cell pellet was re-suspended with 10 mL DMEM media containing 2% FBS. 80 μL of the cell suspension was added to each well of a 96-well cell culture plate to give 100×10^4cells/ml. 10 μL of a standard compound solution was added to each well of the 96-well cell culture plate followed by 10 μL of Alamar blue solution. The cells were incubated at 37° C. in a 5% CO2 incubator for 6 hours.
At the end of the incubation, the plates were removed from incubator, and the supernatant was collected. A≈1-40 concentration in the medium was measured by using a commercial Aβ1-X ELISA kit (IBL, Japan Cat. #27729). Briefly, the ELISA plates were coated with an anti-human AO (N)(82E1) mouse IgG monoclonal antibody. A horseradish peroxidase conjugated anti-human Aβ11-28 mouse IgG monoclonal antibody was used for detection. The cell culture supernatant was diluted with EIA buffer +protease inhibitors (kit buffer containing protease inhibitors (1 mL PI/30 mL buffer)). A 100 μL aliquot of the diluted supernatant was added to each well of the ELISA plate and incubated for 6 hrs at 4° C. The ELISA plate was washed 8 times with phosphate buffered saline (PBS) containing 0.05% Tween 20.
A 100 μL of detection antibody was then added and incubated for 1 hour at 4° C. The plate was washed 8 times with PBS buffer containing 0.05% Tween 20 followed by addition of 100 μL of the chromogen tetramethylbenzidine (TMB). The plate was incubated in the dark at room temperature for about 30 min and a stop solution (1N H2SO4) was added.
The intensity of the color developed was measured at 450 nm. The optical density at 450 nm (OD450) is proportional to the concentration of human Aβ1-40 secreted by the cell. As a reference, N-[N-(3,5-difluorophenacetyl-L-alanyl)]-S-phenylglycine t-butyl ester (DAPT, a γ-secretase inhibitor) was used to indicate 100% inhibition of BACE activity. Thus, the assay measures the ability of a compound of interest to reduce Aβ1-40 secretion. For select compounds, compound potency is reported in Table 3 as the EC50 by calculating the percent inhibition at all concentration levels and the data were fit with non-linear curve fitting algorithm using GraphPad Prism.

T1 sequence (P56817 46-457 limits assumed): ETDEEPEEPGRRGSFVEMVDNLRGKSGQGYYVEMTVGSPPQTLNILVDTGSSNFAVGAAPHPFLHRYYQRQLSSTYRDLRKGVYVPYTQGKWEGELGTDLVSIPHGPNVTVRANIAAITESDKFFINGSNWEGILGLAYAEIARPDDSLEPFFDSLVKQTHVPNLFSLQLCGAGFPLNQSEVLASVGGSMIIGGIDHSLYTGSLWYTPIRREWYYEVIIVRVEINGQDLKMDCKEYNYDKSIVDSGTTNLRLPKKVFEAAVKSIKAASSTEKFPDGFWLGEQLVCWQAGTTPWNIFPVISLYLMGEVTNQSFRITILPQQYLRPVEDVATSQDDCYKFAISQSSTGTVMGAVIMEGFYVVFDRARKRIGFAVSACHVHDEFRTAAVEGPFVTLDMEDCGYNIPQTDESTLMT

IC50 (BACE-1 enzyme) [µM] | SMILES | EC50 [1] [µM]
0.82 | CCOc1cccc(-c2ccc3[nH]c(NC(=O)c4cn5c(C)cccc5n4)nc3c2)c1 [Example 35, 5-Methyl-imidazo[1,2-a]pyridine-2-carboxylic acid [5-(3-ethoxy-phenyl)-1H-benzoimidazol-2-yl]-amide] | 2.3
0.38 | Cc1cccc2nc(C(=O)Nc3nc4cc(OCc5ccccc5C(F)(F)F)ccc4[nH]3)cn12 [Example 42, 5-Methyl-imidazo[1,2-a]pyridine-2-carboxylic acid [5-(2-trifluoromethyl-benzyloxy)-1H-benzoimidazol-2-yl]-amide] | 3.45
0.3 | Cc1cccc2nc(C(=O)Nc3nc4cc(OCc5cc(F)cc(C(F)(F)F)c5)ccc4[nH]3)cn12 [Example 43, 5-Methyl-imidazo[1,2-a]pyridine-2-carboxylic acid [5-(3-fluoro-5-trifluoromethyl-benzyloxy)-1H-benzoimidazol-2-yl]-amide] | 0.58
0.26 | Cc1cccc2nc(C(=O)Nc3nc4cc(-c5cccc(OC(F)(F)F)c5)ccc4[nH]3)cn12 [Example 46, 5-Methyl-imidazo[1,2-a]pyridine-2-carboxylic acid [5-(3-trifluoromethoxy-phenyl)-1H-benzoimidazol-2-yl]-amide] | 0.63
0.42 | Cc1cccc2nc(C(=O)Nc3nc4cc(-c5ccc(Cl)c(C(F)(F)F)c5)ccc4[nH]3)cn12 [Example 47, 5-Methyl-imidazo[1,2-a]pyridine-2-carboxylic acid [5-(4-chloro-3-trifluoromethyl-phenyl)-1H-benzoimidazol-2-yl]-amide] | 0.08
0.49 | Cc1cccc2nc(C(=O)Nc3nc4cc(-c5ccc(F)c(C(F)(F)F)c5)ccc4[nH]3)cn12 [Example 48, 5-Methyl-imidazo[1,2-a]pyridine-2-carboxylic acid [5-(4-fluoro-3-trifluoromethyl-phenyl)-1H-benzoimidazol-2-yl]-amide] | 0.18
0.17 | O=C(Nc1nc2cc(OCc3ccc(C(F)(F)F)cc3)ccc2[nH]1)c1cn2c(C(F)(F)F)cccc2n1 [Example 49, 5-Trifluoromethyl-imidazo[1,2-a]pyridine-2-carboxylic acid [5-(4-trifluoromethyl-benzyloxy)-1H-benzoimidazol-2-yl]-amide] | 8.76
0.32 | Cc1cccn2cc(C(=O)Nc3nc4cc(-c5ccc(C(F)(F)F)cc5)ccc4[nH]3)nc12 [Example 50, 8-Methyl-imidazo[1,2-a]pyridine-2-carboxylic acid [5-(4-trifluoromethyl-phenyl)-1H-benzoimidazol-2-yl]-amide] | 4.41
0.96 | Cc1cccn2cc(C(=O)Nc3nc4cc(-c5cccc(Cl)c5)ccc4[nH]3)nc12 [Example 51, 8-Methyl-imidazo[1,2-a]pyridine-2-carboxylic acid [5-(3-chloro-phenyl)-1H-benzoimidazol-2-yl]-amide] | 1.84
5.28 | O=C(Nc1nc2cc(OCc3ccc(C(F)(F)F)cc3)ccc2[nH]1)c1cn2cc(-c3ccccc3)ccc2n1 [Example 52, 6-Phenyl-imidazo[1,2-a]pyridine-2-carboxylic acid [5-(4-trifluoromethyl-benzyloxy)-1H-benzoimidazol-2-yl]-amide] | 0.51
0.26 | Cc1cccc2nc(C(=O)Nc3nc4cc(-c5cccc(C(F)(F)F)c5F)ccc4[nH]3)cn12 [Example 53, 5-Methyl-imidazo[1,2-a]pyridine-2-carboxylic acid [5-(2-fluoro-3-trifluoromethyl-phenyl)-1H-benzoimidazol-2-yl]-amide] | 0.23
0.39 | COc1cc(-c2ccc3[nH]c(NC(=O)c4cn5c(C)cccc5n4)nc3c2)cc(C(F)(F)F)c1 [Example 54, 5-Methyl-imidazo[1,2-a]pyridine-2-carboxylic acid [5-(3-methoxy-5-trifluoromethyl-phenyl)-1H-benzoimidazol-2-yl]-amide] | 0.98
0.26 | O=C(Nc1nc2cc(-c3ccc(F)c(C(F)(F)F)c3)ccc2[nH]1)c1cn2c(C(F)(F)F)cccc2n1 [Example 55, 5-Trifluoromethyl-imidazo[1,2-a]pyridine-2-carboxylic acid [5-(4-fluoro-3-trifluoromethyl-phenyl)-1H-benzoimidazol-2-yl]-amide] | 2.36
0.28 | Cc1cccc2nc(C(=O)Nc3nc4ccc(-c5cc(F)cc(Cl)c5)cc4[nH]3)cn12 [Example 56, 5-Methyl-imidazo[1,2-a]pyridine-2-carboxylic acid [6-(3-chloro-5-fluoro-phenyl)-1H-benzoimidazol-2-yl]-amide] | 0.24
0.76 | O=C(Nc1nc2cc(-c3ccc(F)c(C(F)(F)F)c3)ccc2[nH]1)c1cn2c(F)cccc2n1 [Example 58, 5-Fluoro-imidazo[1,2-a]pyridine-2-carboxylic acid [5-(4-fluoro-3-trifluoromethyl-phenyl)-1H-benzoimidazol-2-yl]-amide] | 0.4
0.41 | Cc1ccc2nc(C(=O)Nc3nc4cc(-c5cccc(C(F)(F)F)c5)ccc4[nH]3)cn2c1 [Example 59, 6-Methyl-imidazo[1,2-a]pyridine-2-carboxylic acid [5-(3-trifluoromethyl-phenyl)-1H-benzoimidazol-2-yl]-amide] | 3.16
0.22 | Cc1cccc2nc(C(=O)Nc3nc4cc(/C=C/c5ccc(C(F)(F)F)cc5)ccc4[nH]3)cn12 [Example 61, 5-Methyl-imidazo[1,2-a]pyridine-2-carboxylic acid {5-[(E)-2-(4-trifluoromethyl-phenyl)-vinyl]-1H-benzoimidazol-2-yl}-amide] | 0.28
0.4 | Cc1cccc2nc(C(=O)Nc3nc4cc(CCc5ccc(C(F)(F)F)cc5)ccc4[nH]3)cn12 [Example 62, 5-Methyl-imidazo[1,2-a]pyridine-2-carboxylic acid {5-[2-(4-trifluoromethyl-phenyl)-ethyl]-1H-benzoimidazol-2-yl}-amide] | 0.87
1.15 | Cc1cccc2nc(C(=O)Nc3nc4cc(-c5ccc(F)c(F)c5)ccc4[nH]3)cn12 [Example 63, 5-Methyl-imidazo[1,2-a]pyridine-2-carboxylic acid [5-(3,4-difluoro-phenyl)-1H-benzoimidazol-2-yl]-amide] | 1.32
0.31 | Cc1cccc2nc(C(=O)Nc3nc4cc(-c5ccc(F)c(Cl)c5)ccc4[nH]3)cn12 [Example 64, 5-Methyl-imidazo[1,2-a]pyridine-2-carboxylic acid [5-(3-chloro-4-fluoro-phenyl)-1H-benzoimidazol-2-yl]-amide] | 0.14
0.3 | Cc1cccn2cc(C(=O)Nc3nc4cc(-c5ccc(F)c(Cl)c5)ccc4[nH]3)nc12 [Example 65, 8-Methyl-imidazo[1,2-a]pyridine-2-carboxylic acid [5-(3-chloro-4-fluoro-phenyl)-1H-benzoimidazol-2-yl]-amide] | 0.96
0.48 | Cc1cccc2nc(C(=O)Nc3nc4cc(-c5ccc(Cl)cc5)ccc4[nH]3)cn12 [Example 68, 5-Methyl-imidazo[1,2-a]pyridine-2-carboxylic acid [5-(4-chloro-phenyl)-1H-benzoimidazol-2-yl]-amide] | 1.61
